Results on eight molecules are retold here after patent publication US9765056B2, “Indole and pyrrole compounds, a process for their preparation and pharmaceutical compositions containing them” (LES LABORATOIRES SERVIER, priority 2013, dated 2017).

Where a name gives a salt, the structure may show the parent alone.

In assay [1] the test system is RS4;11 leukaemia tumour line. Briefly: In vitro cytotoxicity, Microculture Tetrazolium Assay (MTT). Type of assay: cell-based. Particulars: Homo sapiens; RS4;11 cells, 48 hours exposure. The method, then: The cytotoxicity studies were carried out on the RS4;11 leukaemia tumour line.
The cells are distributed onto microplates and exposed to the test compounds for 48 hours. The cell viability is then quantified by a colorimetric assay, the Microculture Tetrazolium Assay (Cancer Res., 1987, 47, 939-942).

For a further assay, the target named is Bcl-2 protein (histag-Bcl-2, UniProtKB P10415) (Homo sapiens (Human), UniProt P10415). Briefly: Inhibition of Bcl-2 by the fluorescence polarisation technique. Type of assay: binding. Particulars: fluorescence polarisation test; method A, or method B where underlined (underlining not visible); read-out: IC50 (nM) Bcl-2 FP. An excerpt: Inhibition of Bcl-2 by the fluorescence polarisation technique
In general terms: In fluorescence polarisation assays a small probe gives low polarisation when free and higher when bound to something large.

Bcl-2 protein, sequence (P10415 whole entry): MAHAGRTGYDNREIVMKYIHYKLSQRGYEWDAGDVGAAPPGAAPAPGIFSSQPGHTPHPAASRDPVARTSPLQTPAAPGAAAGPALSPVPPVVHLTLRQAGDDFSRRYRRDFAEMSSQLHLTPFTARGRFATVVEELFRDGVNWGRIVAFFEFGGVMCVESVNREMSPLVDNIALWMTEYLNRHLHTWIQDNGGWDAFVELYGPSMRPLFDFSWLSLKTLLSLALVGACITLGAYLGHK

As usually defined, the IC50 is the concentration needed to halve the response being measured. Regarding `COc1cc(-n2cc(C(=O)N(c3ccccc3)c3ccc(F)cc3)c3ccccc32)c(C(=O)N2Cc3ccccc3C[C@H]2CN2CCN(C)CC2)cc1O` [Example 190, N-(4-Fluorophenyl)-1-{4-hydroxy-5-methoxy-2-[(3S)-3-[(4-methylpiperazin-1-yl)methyl]-1,2,3,4-tetrahydroisoquinoline-2-carbonyl]phenyl}-N-phenyl-1H-indole-3-carboxamide dihydrochloride], the IC50 was 645 nM in assay [1] and 13.6 nM on Bcl-2 protein.
For `COc1cc(-n2cc(C(=O)N(c3ccccc3)c3ccc(C)cc3)c3ccccc32)c(C(=O)N2Cc3ccccc3C[C@H]2CN2CCN(C)CC2)cc1O` [Example 193, 1-{4-Hydroxy-5-methoxy-2-[(3S)-3-[(4-methylpiperazin-1-yl)methyl]-1,2,3,4-tetrahydroisoquinoline-2-carbonyl]phenyl}-N-(4-methylphenyl)-N-phenyl-1H-indole-3-carboxamide], the IC50 in assay [1] turned out to be 499 nM; on Bcl-2 protein, 5.6 nM.
Turning to `CCCCN(C(=O)c1cn(-c2cc(OC)c(O)cc2C(=O)N2Cc3ccccc3C[C@H]2CN2CCN(C)CC2)c2ccccc12)c1ccccc1` [Example 194, N-Butyl-1-{4-hydroxy-5-methoxy-2-[(3S)-3-[(4-methylpiperazin-1-yl)-methyl]-1,2,3,4-tetrahydroisoquinoline-2-carbonyl]phenyl}-N-phenyl-1H-indole-3-carboxamide dihydrochloride], the figures for the IC50 (in assay [1]; on Bcl-2 protein) were 534 nM and 6.7 nM, respectively.
As for `CN1CCN(C[C@@H]2Cc3ccccc3CN2C(=O)c2cc3c(cc2-n2cc(C(=O)N(c4ccccc4)c4ccc(O)cc4)c4cc(F)ccc42)OCO3)CC1` [Example 195, 5-Fluoro-N-(4-hydroxyphenyl)-1-{6-[(3S)-3-[(4-methylpiperazin-1-yl)methyl]-1,2,3,4-tetrahydroisoquinoline-2-carbonyl]-2H-1,3-benzodioxol-5-yl}-N-phenyl-1H-indole-3-carboxamide], the IC50 was found to be 507 nM in assay [1] and 31.1 nM at Bcl-2 protein.
For `CN1CCN(C[C@@H]2Cc3ccccc3CN2C(=O)c2cc3c(cc2-n2cc(C(=O)N(c4ccccc4)c4ccc(O)cc4)c4ccc(F)cc42)OCO3)CC1` [Example 197, 6-Fluoro-N-(4-hydroxyphenyl)-1-{6-[(3S)-3-[(4-methylpiperazin-1-yl)methyl]-1,2,3,4-tetrahydroisoquinoline-2-carbonyl]-2H-1,3-benzodioxol-5-yl}-N-phenyl-1H-indole-3-carboxamide], in that order: 328 nM and 9.8 nM.
For the molecule `COc1cc(-n2cc(C(=O)N(c3ccccc3)c3ccc4[nH]ccc4c3)c3ccccc32)c(C(=O)N2Cc3ccccc3C[C@H]2CN2CCN(C)CC2)cc1O` [Example 198, 1-{4-Hydroxy-5-methoxy-2-[(3S)-3-[(4-methylpiperazin-1-yl)methyl]-1,2,3,4-tetrahydroisoquinoline-2-carbonyl]phenyl}-N-(1H-indol-5-yl)-N-phenyl-1H-indole-3-carboxamide], the half-maximal inhibitory concentration (IC50) was 616 nM in assay [1] and 3.4 nM on Bcl-2 protein.
`CCCCN(CCCC)C(=O)c1cn(-c2ccc(NC(=O)CSc3ccccc3)cc2C(=O)N2Cc3ccccc3C[C@H]2CN2CCN(C)CC2)c2ccccc12` [Example 199, N,N-Dibutyl-1-{2-[(3S)-3-[(4-methylpiperazin-1-yl)methyl]-1,2,3,4-tetrahydroisoquinoline-2-carbonyl]-4-[2-(phenylsulphanyl)acetamido]phenyl}-1H-indole-3-carboxamide]: the IC50 in assay [1] worked out at 2360 nM; at Bcl-2 protein, 57.7 nM.
Consider `CCCCN(CCCC)C(=O)c1cn(-c2ccc(NC(=O)COc3ccccc3)cc2C(=O)N2Cc3ccccc3C[C@H]2CN2CCN(C)CC2)c2ccccc12` [Example 200, N,N-Dibutyl-1-{2-[(3S)-3-[(4-methylpiperazin-1-yl)methyl]-1,2,3,4-tetrahydroisoquinoline-2-carbonyl]-4-(2-phenoxyacetamido)phenyl}-1H-indole-3-carboxamide], for which the values for the IC50 (in assay [1]; at Bcl-2 protein) were 2080 nM and 155 nM, respectively.
